Experimental data from patent US20210015793A1, “COMPOUNDS FOR TREATING CNS- AND NEURODEGENERATIVE DISEASES” (ETH ZURICH, priority 2018, published 2021).

Legend:
[1] = Serum concentration by HPLC in dogs after oral dosing; format: in vivo, dog; conditions: dogs
Protocol: (§1) Dog serum concentrations of Compound-1, Compound-1F and Compound-4 were determined with serum isolated from the blood of German shepherd dogs (age: 8-9 months) taken at different time points (2 h, 4 h, 6 h, 8, 10 h, 24 h) after oral drug intake. The steady-state serum concentrations of Compound-1, Compound-1F and Compound-4 were determined in mice with blood isolated at the end of the study by cardiac puncture. Serum proteins were removed by acetonitrile precipitation, and compounds were extracted by chloroform before separation on an HPLC-C18 column (Poroshell 120 EC-C18, Agilent) with an HPLC system (Agilent 1100 Series) and detection at OD 280 nm, for Compound-1 and Compound-1F. Detection of Compound-4 was performed at OD 310 nm. The same extraction method was also used to determine Compound-1F in the serum of healthy human research participants. Dog hematology and biochemical parameters were determined by the Center of Applied Analytical and Veterinary Studies, Cairo, Egypt. ECG and blood pressure were measured by Dr. Mohamed Elsaed, Electrocardiography Unit, Faculty of Veterinary Medicine, Cairo University. The study was approved by the ethical committee of the Center of Applied and Veterinary Studies, Cairo, Egypt. Clinical laboratory parameters of human research participants were determined by the Rabaa El Adaweya Medical Central Hospital, Cairo, Egypt.

[2] = 28-day repeated oral dosing safety in German shepherd dogs; format: in vivo, dog; conditions: dogs
Protocol: as §1

[3] = repeated oral dosing 28 days, 200 mg daily

For `c1cc(-c2ccc3c(c2)OCO3)ncn1` [Compound-4, 4-(1,3-benzodioxol-5-yl)pyrimidine], the “dose dependence of peak serum levels at 2 h after drug intake” value ([1]; doses of 120 mg, 200 mg and 300 mg, 28 days) was “dose-dependent increase”, the oral bioavailability ([1]; oral treatment) was “good oral bioavailability” and the “serum concentration at t=8 h after intake” value [1, 3] was “undetectable”. The “time to peak serum level after drug intake” value [1, 3] was 2 h, the peak serum concentration ([1]; repeated oral dosing 28 days, daily dose of 200 mg) was 0.56 ± 0.10 µg/mL and the “blood pressure and heart rate before vs after drug intake” value ([2]; 28 days) was “not different”. The clinical laboratory parameters ([2]; 28 days at 120, 200 and 300 mg per day) was “within the normal range” and the tolerability ([2]; therapeutic dose range) was “excellent tolerability”.
